This note sets out measurements from patent publication US11667649B2, “Heteroaromatic macrocyclic ether chemotherapeutic agents” (Nuvalent, Inc., priority 2020, dated 2023).

In this experiment the test system is TPM3-NTRK1-wt IC50 / primary target (e.g. CD74-ROS1-wt) IC50, Ba/F3 cells. In words: Cell assay TRKA selectivity (TRKA potency divided by primary target potency). The class given is cell-based. The note with it: for TPM3-NTRK1-wt/CD74-ROS1-G2032R: TRKA selectivity ratio: TPM3-NTRK1-wt IC50 / CD74-ROS1-G2032R IC50, Ba/F3 cells; for TPM3-NTRK1-wt/CD74-ROS1-wt: TRKA selectivity ratio: TPM3-NTRK1-wt IC50 / CD74-ROS1-wt IC50, Ba/F3 cells; for TPM3-NTRK1-wt/EML4-ALK-L1196M-G1202R: TRKA selectivity ratio: TPM3-NTRK1-wt IC50 / EML4-ALK-L1196M-G1202R IC50, Ba/F3 cells; for TPM3-NTRK1-wt/EML4-ALK-wt: TRKA selectivity ratio: TPM3-NTRK1-wt IC50 / EML4-ALK-wt IC50, Ba/F3 cells. In short, it runs like this: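 Ratio of TRKA to primary-target cellular IC50 (e.g. TPM3-NTRK1-wt/CD74-ROS1-wt), grouped into bins A >30, B >10, C ≥1, D <1. Each IC50 came from engineered Ba/F3 fusion lines grown without IL-3, dosed for 72 h and read as CellTiter-Glo luminescence, with a four-parameter logistic fit.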

As for `C[C@H]1Oc2cc(cnc2N)-c2c(nnn2CC2CC2)Cc2cc(C(F)(F)F)nn2-c2ccc(F)cc21` [Example 128, (19R)-3-(cyclopropylmethyl)-16-fluoro-19-methyl-10-(trifluoromethyl)-20-oxa-3,4,5,11,12,23-hexaazapentacyclo[19.3.1.0^2,^6.0^8,^12.0^13,^18]pentacosa-1(24),2(6),4,8,10,13,15,17,21(25),22-decaen-22-amine], the TPM3-NTRK1-wt/CD74-ROS1-G2032R entry was “A (bin A for very high selectivity, ratio>30-fold)”; the TPM3-NTRK1-wt/CD74-ROS1-wt entry is reported as “A (bin A for very high selectivity, ratio>30-fold)”; the TPM3-NTRK1-wt/EML4-ALK-L1196M-G1202R result is on record as “C (bin C for moderate selectivity, ratio≥1)”; the TPM3-NTRK1-wt/EML4-ALK-wt result is on record as “B (bin B for high selectivity, ratio>10-fold)”.

For the compound `C[C@H]1Oc2cc(cnc2N)-c2c(cnn2CC2CC2)Cc2cc(C(F)F)nn2-c2ccc(F)cc21` [Example 130, (19R)-3-(cyclopropylmethyl)-10-(difluoromethyl)-16-fluoro-19-methyl-20-oxa-3,4,11,12,23-pentaazapentacyclo[19.3.1.0^2,^6.0^8,^12.0^13,^18]pentacosa-1(24),2(6),4,8,10,13,15,17,21(25),22-decaen-22-amine], the TPM3-NTRK1-wt/CD74-ROS1-G2032R entry was “A (bin A for very high selectivity, ratio>30-fold)”; the TPM3-NTRK1-wt/CD74-ROS1-wt entry was “A (bin A for very high selectivity, ratio>30-fold)”; the TPM3-NTRK1-wt/EML4-ALK-L1196M-G1202R result is on record as “B (bin B for high selectivity, ratio>10-fold)”; the TPM3-NTRK1-wt/EML4-ALK-wt entry is “A (bin A for very high selectivity, ratio>30-fold)”.

On to `CCn1ncc2c1-c1cnc(N)c(c1)O[C@H](C)c1cc(F)ccc1-c1nc(C)oc1C2` [Example 131, (19R)-3-ethyl-16-fluoro-10,19-dimethyl-9,20-dioxa-3,4,11,23-tetraazapentacyclo[19.3.1.0^2,^6.0^8,^12.0^13,^18]pentacosa-1(24),2(6),4,8(12),10,13,15,17,21(25),22-decaen-22-amine], for which the TPM3-NTRK1-wt/CD74-ROS1-G2032R entry is “B (bin B for high selectivity, ratio>10-fold)”; the TPM3-NTRK1-wt/CD74-ROS1-wt result was “A (bin A for very high selectivity, ratio>30-fold)”; the TPM3-NTRK1-wt/EML4-ALK-L1196M-G1202R result was “C (bin C for moderate selectivity, ratio≥1)”; the TPM3-NTRK1-wt/EML4-ALK-wt result was “B (bin B for high selectivity, ratio>10-fold)”.

Turning to `C[C@H]1Oc2cc(cnc2N)-c2c(C#N)nn(C)c2Cc2cc(C(F)F)nn2-c2ccc(F)cc21` [Example 132, (19R)-22-amino-10-(difluoromethyl)-16-fluoro-5,19-dimethyl-20-oxa-4,5,11,12,23-pentaazapentacyclo[19.3.1.0^2,^6.0^8,^12.0^13,^18]pentacosa-1(24),2(6),3,8,10,13,15,17,21(25),22-decaene-3-carbonitrile], the TPM3-NTRK1-wt/CD74-ROS1-G2032R result is listed as “A (bin A for very high selectivity, ratio>30-fold)”; the TPM3-NTRK1-wt/CD74-ROS1-wt result was “A (bin A for very high selectivity, ratio>30-fold)”; the TPM3-NTRK1-wt/EML4-ALK-L1196M-G1202R result is “C (bin C for moderate selectivity, ratio≥1)”; the TPM3-NTRK1-wt/EML4-ALK-wt entry was “A (bin A for very high selectivity, ratio>30-fold)”.

In the case of `C[C@H]1Oc2cc(cnc2N)-c2c(c(Cl)nn2CC2CC2)Cc2cn(C)nc2-c2ccc(F)cc21` [Example 133, (19R)-5-chloro-3-(cyclopropylmethyl)-16-fluoro-10,19-dimethyl-20-oxa-3,4,10,11,23-pentaazapentacyclo[19.3.1.0^2,^6.0^8,^12.0^13,^18]pentacosa-1(24),2(6),4,8,11,13,15,17,21(25),22-decaen-22-amine], the TPM3-NTRK1-wt/CD74-ROS1-G2032R result is on record as “A (bin A for very high selectivity, ratio>30-fold)”; the TPM3-NTRK1-wt/CD74-ROS1-wt result is given as “A (bin A for very high selectivity, ratio>30-fold)”; the TPM3-NTRK1-wt/EML4-ALK-L1196M-G1202R result was “A (bin A for very high selectivity, ratio>30-fold)”; the TPM3-NTRK1-wt/EML4-ALK-wt result is “A (bin A for very high selectivity, ratio>30-fold)”.

As to `Cc1nc2c(s1)Cc1c(C)nn(CC3CC3)c1-c1cnc(N)c(c1)O[C@H](C)c1cc(F)ccc1-2` [Example 134, (19R)-3-(cyclopropylmethyl)-16-fluoro-5,10,19-trimethyl-20-oxa-9-thia-3,4,11,23-tetraazapentacyclo[19.3.1.0^2,^6.0^8,^12.0^13,^18]pentacosa-1(24),2(6),4,8(12),10,13,15,17,21(25),22-decaen-22-amine], the TPM3-NTRK1-wt/CD74-ROS1-G2032R entry was “A (bin A for very high selectivity, ratio>30-fold)”; the TPM3-NTRK1-wt/CD74-ROS1-wt result is listed as “A (bin A for very high selectivity, ratio>30-fold)”; the TPM3-NTRK1-wt/EML4-ALK-L1196M-G1202R result was “A (bin A for very high selectivity, ratio>30-fold)”; the TPM3-NTRK1-wt/EML4-ALK-wt result was “A (bin A for very high selectivity, ratio>30-fold)”.

As to `Cc1nn(CC2CC2)c2c1Cc1cccnc1-c1ccc(F)cc1[C@@H](C)Oc1cc-2cnc1N` [Example 135, (20R)-3-(cyclopropylmethyl)-17-fluoro-5,20-dimethyl-21-oxa-3,4,12,24-tetraazapentacyclo[20.3.1.0^2,^6.0^8,^13.0^14,^19]hexacosa-1(25),2(6),4,8(13),9,11,14,16,18,22(26),23-undecaen-23-amine], the TPM3-NTRK1-wt/CD74-ROS1-G2032R result is “A (bin A for very high selectivity, ratio>30-fold)”; the TPM3-NTRK1-wt/CD74-ROS1-wt entry was “A (bin A for very high selectivity, ratio>30-fold)”; the TPM3-NTRK1-wt/EML4-ALK-L1196M-G1202R entry is “A (bin A for very high selectivity, ratio>30-fold)”; the TPM3-NTRK1-wt/EML4-ALK-wt entry was “A (bin A for very high selectivity, ratio>30-fold)”.

`Cc1nn(CC2CC2)c2c1Cc1cc(C(F)F)nn1-c1ccc(F)cc1COc1cc-2cnc1N` [Example 136, 3-(cyclopropylmethyl)-10-(difluoromethyl)-16-fluoro-5-methyl-20-oxa-3,4,11,12,23-pentaazapentacyclo[19.3.1.0^2,^6.0^8,^12.0^13,^18]pentacosa-1(24),2(6),4,8,10,13,15,17,21(25),22-decaen-22-amine]: the TPM3-NTRK1-wt/CD74-ROS1-G2032R entry is reported as “A (bin A for very high selectivity, ratio>30-fold)”; the TPM3-NTRK1-wt/CD74-ROS1-wt result was “A (bin A for very high selectivity, ratio>30-fold)”; the TPM3-NTRK1-wt/EML4-ALK-L1196M-G1202R result is “A (bin A for very high selectivity, ratio>30-fold)”; the TPM3-NTRK1-wt/EML4-ALK-wt result is on record as “A (bin A for very high selectivity, ratio>30-fold)”.

As to `C[C@H]1Oc2cc(cnc2N)-c2c(cnn2CC2CC2)Cc2cccnc2-c2ccc(F)cc21` [Example 137, (20R)-3-(cyclopropylmethyl)-17-fluoro-20-methyl-21-oxa-3,4,12,24-tetraazapentacyclo[20.3.1.0^2,^6.0^8,^13.0^14,^19]hexacosa-1(25),2(6),4,8(13),9,11,14,16,18,22(26),23-undecaen-23-amine], the TPM3-NTRK1-wt/CD74-ROS1-G2032R result is reported as “A (bin A for very high selectivity, ratio>30-fold)”; the TPM3-NTRK1-wt/CD74-ROS1-wt entry is “A (bin A for very high selectivity, ratio>30-fold)”; the TPM3-NTRK1-wt/EML4-ALK-L1196M-G1202R result was “A (bin A for very high selectivity, ratio>30-fold)”; the TPM3-NTRK1-wt/EML4-ALK-wt entry was “A (bin A for very high selectivity, ratio>30-fold)”.

In the case of `Nc1ncc2cc1OCc1cc(F)ccc1-n1nc(C(F)F)cc1Cc1cnn(CC3CC3)c1-2` [Example 138, 3-(cyclopropylmethyl)-10-(difluoromethyl)-16-fluoro-20-oxa-3,4,11,12,23-pentaazapentacyclo[19.3.1.0^2,^6.0^8,^12.0^13,^18]pentacosa-1(24),2(6),4,8,10,13,15,17,21(25),22-decaen-22-amine], the TPM3-NTRK1-wt/CD74-ROS1-G2032R entry is given as “A (bin A for very high selectivity, ratio>30-fold)”; the TPM3-NTRK1-wt/CD74-ROS1-wt result was “A (bin A for very high selectivity, ratio>30-fold)”; the TPM3-NTRK1-wt/EML4-ALK-L1196M-G1202R entry is given as “A (bin A for very high selectivity, ratio>30-fold)”; the TPM3-NTRK1-wt/EML4-ALK-wt entry is “A (bin A for very high selectivity, ratio>30-fold)”.

In the case of `C[C@H]1Oc2cc(cnc2N)-c2c(cnn2C2COC2)Cc2cn(C)nc2-c2ccc(F)cc21` [Example 139, (19R)-16-fluoro-10,19-dimethyl-3-(oxetan-3-yl)-20-oxa-3,4,10,11,23-pentaazapentacyclo[19.3.1.0^2,^6.0^8,^12.0^13,^18]pentacosa-1(24),2(6),4,8,11,13,15,17,21(25),22-decaen-22-amine], the TPM3-NTRK1-wt/CD74-ROS1-G2032R entry was “A (bin A for very high selectivity, ratio>30-fold)”; the TPM3-NTRK1-wt/CD74-ROS1-wt entry is listed as “A (bin A for very high selectivity, ratio>30-fold)”; the TPM3-NTRK1-wt/EML4-ALK-L1196M-G1202R entry is reported as “C (bin C for moderate selectivity, ratio≥1)”; the TPM3-NTRK1-wt/EML4-ALK-wt result is “A (bin A for very high selectivity, ratio>30-fold)”.

Take `CCn1cc2c(n1)-c1ccc(F)cc1[C@@H](C)Oc1cc(cnc1N)-c1c(cnn1CC1CC1)C2` [Example 140, (19R)-3-(cyclopropylmethyl)-10-ethyl-16-fluoro-19-methyl-20-oxa-3,4,10,11,23-pentaazapentacyclo[19.3.1.0^2,^6.0^8,^12.0^13,^18]pentacosa-1(24),2(6),4,8,11,13,15,17,21(25),22-decaen-22-amine]: the TPM3-NTRK1-wt/CD74-ROS1-G2032R result was “A (bin A for very high selectivity, ratio>30-fold)”; the TPM3-NTRK1-wt/CD74-ROS1-wt result was “A (bin A for very high selectivity, ratio>30-fold)”; the TPM3-NTRK1-wt/EML4-ALK-L1196M-G1202R entry was “A (bin A for very high selectivity, ratio>30-fold)”; the TPM3-NTRK1-wt/EML4-ALK-wt entry is given as “A (bin A for very high selectivity, ratio>30-fold)”.
